Data on two compounds can be found in patent US20170246166A1, “1,2-BENZOTHIAZOLE COMPOUNDS FOR THE TREATMENT OF KIDNEY DISORDERS” (priority 2014, published 2017).

The test system of assay [1] is persons with type 2 diabetes and nephropathy. The note with it: in combination with an ACE inhibitor, ARB, or both; cited from earlier work.
Assay [2] relates to PKC. The assay is described as follows: Cell-based assay of PKC inhibition (PKC substrate phosphorylation in THP-1 cells). The note with it: human THP-1 cells, 1.5 h compound, then 20 nM PMA for 30 min; read-out: absolute IC50, PKC substrate phosphorylation. As to the method:
The purpose of this assay is to test the inhibitory effects of a test compound on PKC in a cell-based system by measuring the level of PKC substrate phosphorylation.
Staurosporin may be used as a positive control. It is prepared in DMSO to make up a […] solution and then serially diluted in plain RPMI 1640 culture medium (10 μM-0.0005 μM) to obtain a ten-point dilution curve. Test compounds are prepared in the same manner.
THP-1 cells (human macrophage cell line) are obtained from ATCC (ATCC TIB-202 lot 4028542). The cells are cultured in 96-well plates coated with poly-d-lysine (Becton Dickinson) with seeding density of 4000 cells/well in RPMI 1640 culture medium (Gibco) with 1% fetal bovine serum (Gibco). […]
After the incubation, the cells are first fixed in the Prefer fixative (ANATECH LTD) for 30 min at room temperature. […] Plates are scanned with an ACUMEN EXPLORER™ Laser-scanning fluorescence microplate cytometer (TTP LABTECH LTD), with 488 nm laser excitation to detect emission fluorescence at 655 nm-705 nm (emission of DNA bound propidium iodide) for cell counting/well, and emission of 505 nm-530 nm fluorescence of antibody binding to phosphorylated PKC substrates in cells. The main assay output is a ratio of total fluorescence of phosphorylated PKC substrates to total cell number (ratio=total intensity/total cell number). […]

For `CN(C)C[C@@H]1CCn2cc(c3ccccc32)C2=C(C(=O)NC2=O)c2cn(c3ccccc23)CCO1` [ruboxistaurin], the “effects on albuminuria and renal function” value in assay [1] was “favorable effects on albuminuria and renal function”.

Broadly, the IC50 is the concentration that inhibits the measured activity by half. Regarding `CN[C@@H]1C[C@H]2O[C@@](C)([C@@H]1OC)n1c3ccccc3c3c4c(c5c6ccccc6n2c5c31)C(=O)NC4` [Staurosporin, reference compound], in assay [2], the IC50 is […].
